For series [1], the system named is Scn2a^Q54 transgenic mice. Briefly: Spontaneous seizure frequency in Scn2aQ54 mouse model of elevated persistent sodium current. It counts as in vivo. From the text: Scn2a^Q54 transgenic mice were generated as described and are maintained as a congenic line on the C57BL/6J (Jax #000664) background (B6.Q54) (Kearney et al., 2001; PMID 11166117). For experiments, F1 generation mice were produced by crossing B6.Q54 hemizygous transgenic males with SJL/J (Jax #000686) females and genotyping for the Scn2a^Q54 transgene. Experimental animals used in this study were male and female postnatal day 18-21 (P18-21) mice, with the majority being P19-P20.
Dosing solutions were freshly formulated on the morning on the study. Dosing solution contained 0.5% methylcellulose with 0.2% Tween-80 was made with 1 mL 10% Tween-80 (in ddH20) and 49 mL 0.5% methylcellulose (in ddH20) either with or without (vehicle) Compound 1 (0.3 mg/kg, 1 mg/kg, 3 mg/kg, or 10 mg/kg). Each animal received a single administration of vehicle or Compound 1 by oral gavage.
For seizure monitoring, two mice were placed into a monitoring cage (23 cm×13 cm) and two side-view cameras were placed to record baseline spontaneous seizure activity. […] After the 30-minute recording, mice were administered Compound 1 or vehicle and returned to their home cage. After 30 minutes, the two mice were returned to the monitoring cage and recorded for an additional 30 minutes to assess post-treatment seizure activity. The number of focal motor seizures with forelimb clonus and repetitive movements lasting 1-5 seconds, and generalized tonic-clonic seizures (GTCS) with rearing and falling lasting approximately 1 minute were counted. Seizures were scored offline by an observer blinded to treatment and pre/post status of the video file.
The numbers of seizures before and after treatment were counted for each animal by a reviewer blinded to treatment and pre/post status of the video record. Mice that had less than three seizures or more than 35 seizures during the baseline period were excluded from the analysis as pre-defined in the study design. Statistical analysis was conducted using two-way repeated measures ANOVA and Sidak's multiple comparisons, with p<0.05 considered statistically significant (GraphPad Prism 8.4). Change in average seizure frequency was determined by averaging each group and then computing relative change as [(avg. post−avg. pre)/avg. pre], expressed as a percentage.

The nature of series [2]: 2-part Phase 1 trial (28 days; OXC combination): pharmacokinetics.
Excerpt: This was a 2-part randomized, placebo-controlled Phase 1 trial in healthy participants aged 18-55 years. […] PD effects were examined on quantitative EEG (qEEG; resting and vigilant conditions) and stimulated EEG using auditory steady state response (ASSR). A total of 48 participants were enrolled; Part A, n=30; Part B, n=18.

Each structure is given as a SMILES string.

On to `CCOC(F)(F)c1nnc2cnc(-c3cnc(OCC(F)(F)F)c(F)c3)cn12` [Compound 1, 3-(ethoxydifluoromethyl)-6-(5-fluoro-6-(2,2,2-trifluoroethoxy)pyridin-3-yl)-[1,2,4]triazolo[4,3-a]pyrazine], for which, in series [1] (10 mg/kg), the “mice showing seizures after dosing” value was “no mice showing any seizures”. The “seizure frequency compared to pre-treatment baseline” value in series [1] (1, 3 and 10 mg/kg p.o., 30 min after treatment) was “significant reduction”. In addition, in series [1] (Scn2a Q54 DEE mouse model), the “protection from spontaneous seizures (FIG. 14A)” value was “completely block seizures”. In series [1] (doses of 1 mg/kg and above), the “reduction in seizure frequency” value is 50%. Also, in series [2] (90 mg QD for 28 days, Part A), the “approach to steady state” value is reported as “approached steady state”. Besides, the “increase in Compound 1 concentrations over human-equivalent dose required for efficacy in preclinical MES models” value in series [2] (Part A, 90 mg QD) was 13 fold. For the same compound, the “Compound 1 exposure with OXC coadministration” value in series [2] (Part B, data not shown) was “did not appear to be altered”.

These data come from patent US12582652B2, “3-(ethoxydifluoromethyl)-6-(5-fluoro-6-(2,2,2-trifluoroethoxy)pyridin-3-yl)-[1,2,4]triazolo[4,3-a]pyrazine as an ion channel modulator” (Praxis Precision Medicines, Inc., priority 2022, dated 2026).
